Measured values: the supplement of paper PMC10307832

Columns and labels:
Experiment in all cases: relative viability (nuclei count vs DMSO), 5 days (fraction); higher = more cells survive
[1] = system: BEN
Outline: (§1)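 For relative viability, nuclei counts in treated wells were divided by those in vehicle wells. Lung cancer cell lines had been pin-tool dosed in 1536-well plates the day after seeding and cultured for 5 days, then fixed and stained in one step (final 0.05% Triton X-100, 1% formaldehyde, 1 ug/ml Hoechst) and imaged at 4×. Doses were one drug alone or a fixed anchor-drug dose plus five library-drug doses (not always all listed) in √10 steps, and values are duplicate-plate medians.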

[2] = system: CAL-12T
Outline: as §1

[3] = system: COR-L23
Outline: as §1

[4] = system: HCC-44
Outline: as §1

[5] = system: LU99A
Outline: as §1

[6] = system: LXF-289
Outline: as §1

[7] = system: NCI-H1355
Outline: as §1

[8] = system: NCI-H1437
Outline: as §1

[9] = system: NCI-H1650
Outline: as §1

[10] = system: NCI-H1651
Outline: as §1

[11] = system: NCI-H1666
Outline: as §1

[12] = system: NCI-H1755
Outline: as §1

[13] = system: NCI-H1792
Outline: as §1

[14] = system: NCI-H1993
Outline: as §1

[15] = system: NCI-H2085
Outline: as §1

[16] = system: NCI-H2087
Outline: as §1

[17] = system: NCI-H2170
Outline: as §1

[18] = system: NCI-H460
Outline: as §1

[19] = system: NCI-H520
Outline: as §1

[20] = system: PC-14
Outline: as §1

[21] = system: SK-MES-1
Outline: as §1

`CCNC(=O)c1noc(-c2cc(C(C)C)c(O)cc2O)c1-c1ccc(CN2CCOCC2)cc1` [Luminespib] + O=C(c1cc(Cc2n[nH]c(=O)c3ccccc23)ccc1F)N1CCN(C(=O)C2CC2)CC1 [Olaparib] (partner 8 µM) was tested. Which relative viability ([1]; first compound 0.002 µM) did it give?
Its relative viability is 1.24.

And the relative viability ([1]; first compound 0.006325 µM)?
Its relative viability is 0.905.

And the relative viability ([1]; first compound 0.02 µM)?
Its relative viability is 0.823.

What about the relative viability ([1]; first compound 0.06325 µM) of the same compound?
Its relative viability is 0.273.

And the relative viability ([1]; first compound 0.2 µM)?
Its relative viability is 0.279.

And the relative viability ([2]; first compound 0.002 µM)?
The relative viability was 0.671.

And the relative viability ([2]; first compound 0.006325 µM)?
The relative viability was 0.679.

What about the relative viability ([2]; first compound 0.02 µM) of the same compound?
The relative viability was 0.959.

And the relative viability ([2]; first compound 0.06325 µM)?
The relative viability was 0.136.

And the relative viability ([2]; first compound 0.2 µM)?
Its relative viability is 0.182.

What about the relative viability ([3]; first compound 0.002 µM) of the same compound?
The relative viability was 0.371.

And the relative viability ([3]; first compound 0.006325 µM)?
The relative viability was 0.344.

And the relative viability ([3]; first compound 0.02 µM)?
The relative viability was 0.482.

And the relative viability ([3]; first compound 0.06325 µM)?
The relative viability was 0.0712.

And the relative viability ([3]; first compound 0.2 µM)?
The relative viability was 0.0572.

What about the relative viability ([4]; first compound 0.002 µM) of the same compound?
The relative viability was 0.981.

And the relative viability ([4]; first compound 0.006325 µM)?
The relative viability was 0.952.

What about the relative viability ([4]; first compound 0.02 µM) of the same compound?
The relative viability was 1.07.

And the relative viability ([4]; first compound 0.06325 µM)?
The relative viability was 0.944.

And the relative viability ([4]; first compound 0.2 µM)?
Its relative viability is 0.52.

What about the relative viability ([5]; first compound 0.002 µM) of the same compound?
The relative viability was 0.294.

And the relative viability ([5]; first compound 0.006325 µM)?
Its relative viability is 0.236.

What about the relative viability ([5]; first compound 0.02 µM) of the same compound?
The relative viability was 0.226.

What about the relative viability ([5]; first compound 0.06325 µM) of the same compound?
The relative viability was 0.174.

What about the relative viability ([5]; first compound 0.2 µM) of the same compound?
Its relative viability is 0.138.

What about the relative viability ([6]; first compound 0.002 µM) of the same compound?
The relative viability was 1.01.

What about the relative viability ([6]; first compound 0.006325 µM) of the same compound?
The relative viability was 1.03.

And the relative viability ([6]; first compound 0.02 µM)?
Its relative viability is 1.2.

What about the relative viability ([6]; first compound 0.06325 µM) of the same compound?
Its relative viability is 0.99.

And the relative viability ([6]; first compound 0.2 µM)?
The relative viability was 0.805.

What about the relative viability ([7]; first compound 0.002 µM) of the same compound?
The relative viability was 0.757.

What about the relative viability ([7]; first compound 0.006325 µM) of the same compound?
Its relative viability is 0.695.

What about the relative viability ([7]; first compound 0.02 µM) of the same compound?
The relative viability was 0.611.

And the relative viability ([7]; first compound 0.06325 µM)?
The relative viability was 0.188.

What about the relative viability ([7]; first compound 0.2 µM) of the same compound?
Its relative viability is 0.149.

What about the relative viability ([8]; first compound 0.002 µM) of the same compound?
Its relative viability is 0.806.

And the relative viability ([8]; first compound 0.006325 µM)?
Its relative viability is 0.63.

What about the relative viability ([8]; first compound 0.02 µM) of the same compound?
The relative viability was 0.684.

And the relative viability ([8]; first compound 0.06325 µM)?
The relative viability was 0.259.

What about the relative viability ([8]; first compound 0.2 µM) of the same compound?
Its relative viability is 0.211.

And the relative viability ([9]; first compound 0.002 µM)?
Its relative viability is 0.852.

What about the relative viability ([9]; first compound 0.006325 µM) of the same compound?
Its relative viability is 0.786.

What about the relative viability ([9]; first compound 0.02 µM) of the same compound?
Its relative viability is 0.686.

What about the relative viability ([9]; first compound 0.06325 µM) of the same compound?
The relative viability was 0.142.

What about the relative viability ([9]; first compound 0.2 µM) of the same compound?
The relative viability was 0.137.

And the relative viability ([10]; first compound 0.002 µM)?
Its relative viability is 0.195.

What about the relative viability ([10]; first compound 0.006325 µM) of the same compound?
Its relative viability is 0.177.

What about the relative viability ([10]; first compound 0.02 µM) of the same compound?
Its relative viability is 0.251.

What about the relative viability ([10]; first compound 0.06325 µM) of the same compound?
The relative viability was 0.181.

What about the relative viability ([10]; first compound 0.2 µM) of the same compound?
Its relative viability is 0.165.

And the relative viability ([11]; first compound 0.002 µM)?
The relative viability was 0.778.

And the relative viability ([11]; first compound 0.006325 µM)?
Its relative viability is 0.733.

What about the relative viability ([11]; first compound 0.02 µM) of the same compound?
The relative viability was 0.753.

What about the relative viability ([11]; first compound 0.06325 µM) of the same compound?
The relative viability was 0.75.

What about the relative viability ([11]; first compound 0.2 µM) of the same compound?
Its relative viability is 0.716.

What about the relative viability ([12]; first compound 0.002 µM) of the same compound?
Its relative viability is 0.917.

What about the relative viability ([12]; first compound 0.006325 µM) of the same compound?
The relative viability was 0.808.

What about the relative viability ([12]; first compound 0.02 µM) of the same compound?
Its relative viability is 0.759.

And the relative viability ([12]; first compound 0.06325 µM)?
The relative viability was 0.817.

And the relative viability ([12]; first compound 0.2 µM)?
The relative viability was 0.794.

And the relative viability ([13]; first compound 0.002 µM)?
The relative viability was 0.4.

What about the relative viability ([13]; first compound 0.006325 µM) of the same compound?
The relative viability was 0.298.

What about the relative viability ([13]; first compound 0.02 µM) of the same compound?
Its relative viability is 0.271.

What about the relative viability ([13]; first compound 0.06325 µM) of the same compound?
Its relative viability is 0.0723.

And the relative viability ([13]; first compound 0.2 µM)?
Its relative viability is 0.0503.

What about the relative viability ([14]; first compound 0.002 µM) of the same compound?
Its relative viability is 1.09.

What about the relative viability ([14]; first compound 0.006325 µM) of the same compound?
The relative viability was 0.953.

What about the relative viability ([14]; first compound 0.02 µM) of the same compound?
The relative viability was 0.617.

What about the relative viability ([14]; first compound 0.06325 µM) of the same compound?
Its relative viability is 0.903.

What about the relative viability ([14]; first compound 0.2 µM) of the same compound?
The relative viability was 0.39.

What about the relative viability ([15]; first compound 0.002 µM) of the same compound?
The relative viability was 0.78.

And the relative viability ([15]; first compound 0.006325 µM)?
Its relative viability is 0.742.

And the relative viability ([15]; first compound 0.02 µM)?
Its relative viability is 0.766.

And the relative viability ([15]; first compound 0.06325 µM)?
The relative viability was 0.425.

What about the relative viability ([15]; first compound 0.2 µM) of the same compound?
Its relative viability is 0.337.

What about the relative viability ([16]; first compound 0.002 µM) of the same compound?
Its relative viability is 0.639.

And the relative viability ([16]; first compound 0.006325 µM)?
The relative viability was 0.518.

What about the relative viability ([16]; first compound 0.02 µM) of the same compound?
The relative viability was 0.559.

What about the relative viability ([16]; first compound 0.06325 µM) of the same compound?
The relative viability was 0.116.

And the relative viability ([16]; first compound 0.2 µM)?
The relative viability was 0.113.

What about the relative viability ([17]; first compound 0.002 µM) of the same compound?
The relative viability was 0.659.

What about the relative viability ([17]; first compound 0.006325 µM) of the same compound?
The relative viability was 0.539.

What about the relative viability ([17]; first compound 0.06325 µM) of the same compound?
Its relative viability is 0.468.

What about the relative viability ([17]; first compound 0.2 µM) of the same compound?
The relative viability was 0.16.

And the relative viability ([18]; first compound 0.002 µM)?
The relative viability was 0.514.

And the relative viability ([18]; first compound 0.006325 µM)?
Its relative viability is 0.37.

What about the relative viability ([18]; first compound 0.02 µM) of the same compound?
The relative viability was 0.454.

And the relative viability ([18]; first compound 0.06325 µM)?
Its relative viability is 0.0514.

What about the relative viability ([18]; first compound 0.2 µM) of the same compound?
The relative viability was 0.0343.

And the relative viability ([19]; first compound 0.002 µM)?
The relative viability was 0.361.

And the relative viability ([19]; first compound 0.006325 µM)?
Its relative viability is 0.302.

And the relative viability ([19]; first compound 0.02 µM)?
The relative viability was 0.227.

And the relative viability ([19]; first compound 0.06325 µM)?
The relative viability was 0.139.

And the relative viability ([19]; first compound 0.2 µM)?
Its relative viability is 0.112.

And the relative viability ([20]; first compound 0.002 µM)?
The relative viability was 0.288.

What about the relative viability ([20]; first compound 0.006325 µM) of the same compound?
Its relative viability is 0.261.

And the relative viability ([20]; first compound 0.02 µM)?
Its relative viability is 0.101.

What about the relative viability ([20]; first compound 0.06325 µM) of the same compound?
The relative viability was 0.0578.

And the relative viability ([20]; first compound 0.2 µM)?
The relative viability was 0.0514.

What about the relative viability ([21]; first compound 0.002 µM) of the same compound?
Its relative viability is 0.713.

What about the relative viability ([21]; first compound 0.006325 µM) of the same compound?
The relative viability was 0.629.

What about the relative viability ([21]; first compound 0.02 µM) of the same compound?
The relative viability was 0.326.

And the relative viability ([21]; first compound 0.06325 µM)?
Its relative viability is 0.17.

What about the relative viability ([21]; first compound 0.2 µM) of the same compound?
The relative viability was 0.157.
